Experiment: UV-Vis absorption and fluorescence spectroscopy (spectral properties in aqueous media / PBS buffer)
Format: physicochemical
Design: Brightness: unit not given here
Settings: aqueous media; for FWHMabs (nm): absorption band width; for λabs (nm): absorption maximum; for FWHem (nm): emission band width; for λem (nm): emission maximum; for ε (M^-1 cm-1): extinction coefficient from Beer's Law plots; for ϕ: relative quantum yield, TMR and SiTMR as reference
Experimental: UV-Vis and fluorescence spectra were collected on a SpectraMax M5 spectrometer with a Microplate reader (Molecular Devices, Sunnyvale, CA). All absorbance spectra were reference corrected. Extinction coefficient was calculated from Beer’s Law plots of absorbance versus concentration. Relative quantum yields are reported using TMR and SiTMR as reference.

Row | Structure (SMILES) | Brightness | Stokes Shift (nm) | FWHMabs (nm) | λabs (nm) | FWHem (nm) | λem (nm) | ε (M^-1 cm-1) | ϕ
1 | Cc1cc(C(=O)O)ccc1-c1c2cc/c(=[N+](/C)CCCS(=O)(=O)[O-])cc-2oc2cc(N(C)C)ccc12 [OF550COOH, (E)((9-(4-carboxy-2-methylphenyl)-6-(dimethylamino)-3H-xanthenylidene)(methyl)ammonio)propane-1-sulfonate] | 78 | 24 nm | 33 nm | 554 nm | 42 nm | 578 nm | 112,600 M^-1 cm-1 | 0.69
2 | CN(C)c1ccc2c(c1)[Si](C)(C)C1=CC(=[N+](C)C)C=CC1=C2c1cc(C(=O)NCCCn2cc(-c3cccc(Nc4ncnc5ccccc45)c3)nn2)ccc1C(=O)[O-] [SiRErl(UnT)] | 5 | 16 nm | 38 nm | 654 nm | 43 nm | 670 nm | 24,100 M^-1 cm-1 | 0.19
3 | CN(C)c1ccc2c(c1)[Si](C)(C)C1=CC(=[N+](C)C)C=CC1=C2c1cc(C(=O)NCCOCCOCCCCCCCl)ccc1C(=O)[O-] [SiRHALO] | 3 | 18 nm | 45 nm | 646 nm | 45 nm | 664 nm | 11,100 M^-1 cm-1 | 0.25
4 | CN(C)c1ccc2c(-c3cc(C(=O)NCCCn4cc(-c5cccc(Nc6ncnc7ccccc67)c5)nn4)ccc3C(=O)[O-])c3ccc(=[N+](C)C)cc-3oc2c1 [TMRErl(UnT)] | 7 | 26 nm | 44 nm | 559 nm | 43 nm | 585 nm | 18,700 M^-1 cm-1 | 0.37
5 | CN(C)c1ccc2c(-c3cc(C(=O)NCc4ccc(COc5nc(N)nc6[nH]cnc56)cc4)ccc3C(=O)[O-])c3ccc(=[N+](C)C)cc-3oc2c1 [TMRSNAP] | 11 | 24 nm | 58 nm | 553 nm | 45 nm | 577 nm | 27,700 M^-1 cm-1 | 0.41
6 | C#Cc1cccc(Nc2ncnc3ccc(NC(=O)CCNC(=O)c4ccc(C5=C6C=C/C(=[N+](/C)CCCS(=O)(=O)[O-])C=C6[Si](C)(C)c6cc(N(C)C)ccc65)c(C)c4)cc23)c1 [OF650Erl(T)] | 7 | 17 nm | 38 nm | 656 nm | 41 nm | 673 nm | 43,400 M^-1 cm-1 | 0.16
7 | CN(C)c1ccc2c(-c3cc(C(=O)O)ccc3C(=O)[O-])c3ccc(=[N+](C)C)cc-3oc2c1 [TMRCOOH, 4-carboxy-2-(6-(dimethylamino)-3-(dimethyliminio)-3H-xanthen-9-yl)benzoate] | 49 | 26 nm | 42 nm | 550 nm | 44 nm | 576 nm | 83,800 M^-1 cm-1 | 0.58
8 | CN(C)c1ccc2c(-c3ccccc3C(=O)[O-])c3ccc(=[N+](C)C)cc-3oc2c1 [TMR] | 33 | 25 nm | 38 nm | 549 nm | 42 nm | 574 nm | 60,900 M^-1 cm-1 | 0.54

— patent publication US20230287217A1, “Zwitterionic Cell-Permeant and Water-Soluble Rhodamine Dyes for Quantitative Imaging Applications” (OREGON HEALTH & SCIENCE UNIVERSITY, priority 2020, published 2023)
